Assay results as given in patent US7507803B2, “Optimized multi-epitope constructs and uses thereof” (priority 2002, dated 2009).
Read-outs that look alike come from different tables or passages of the source. Ends that are not written are not given here.

Columns and labels:
[1] = system: HLA supertype alleles; type: binding, human
[2] = target: HLA-A*2402 (Homo sapiens, UniProt P04439, D101N/D140Y/D185E/E176V/E190D/F33S/G103R/G107R/I119L/I121M/I306V/K335N/L105A/L180Q/L300P/N151K/N90K/Q86E/Q94H/R106L/R138H/R89G/T104I/T345S/V100E/W191G/Y123F); experiment: HLA class I peptide binding assay (purified HLA, IC50)
[3] = system: H2^bxd mice; experiment: CTL response after peptide/IFA immunization, in situ ELISA; type: in vivo, mouse; details: peptide/IFA immunization of H2^bxd mice
[4] = system: HLA-A*0201/K^b transgenic mice; experiment: CTL response after DNA immunization, 51Cr release assay (lytic units); type: in vivo, mouse
Excerpt: However, the magnitude and the frequency of the responses varied greatly between epitopes.
This assay to measure CTL activity is well known in the art. […] The LU calculation allows quantifying responses and thus readily comparing different experimental values.

[5] = system: H2^bxd mice; experiment: HTL responses, primary IFN-γ ELISPOT on CD4 T cells; type: in vivo, mouse
Procedure: H2^bxd mice were immunized intramuscularly with 100 μg of a vaccine HBV HTL epigene construct or the individual peptides emulsified in CFA. Eleven days after the immunization CD4 T cells were purified from splenocytes and HTL responses were measured using a primary IFN-γ ELISPOT assay.
Eleven days after immunization, no booster immunizations were administered, CD4 T cells were purified from the spleen, and peptide specific HTL responses were measured in a primary γ-IFN ELISPOT assay.
The immunogenicity of the HTL epitopes was also characterized using H2^bxd mice.
This construct was tested for immunogenicity in H2^bxd mice (FIG. 28B), measuring IFN-γ production by CD4+ T-lymphocytes using an ELISPOT assay.

[6] = A2, A3 or B7 supertype, five most common members
[7] = A1 or A24 supertype, three related alleles

Molecule: CC(C)[C@H](NC(=O)CNC(=O)CNC(=O)[C@@H](NC(=O)[C@@H](NC(=O)[C@H](CCCNC(=N)N)NC(=O)[C@H](C)NC(=O)[C@@H]1CCCN1C(=O)[C@@H](N)[C@@H](C)O)C(C)C)[C@@H](C)O)C(=O)N[C@@H](Cc1ccccc1)C(=O)O [pol 354]
- XRN (number of supertype alleles bound ≦500 nM) [1, 6]: 2

Molecule: LWFHISCLTF [core 101]
- IC50 [2]: 6.7 nM
- XRN (number of supertype alleles bound ≦500 nM) [1, 7]: 3
- Murine Immunogenicity (SU) [3]: 0.0 SU

Molecule: CSCC[C@H](NC(=O)[C@H](CC(C)C)NC(=O)[C@H](C)NC(=O)[C@@H]1CCCN1C(=O)[C@H](Cc1ccc(O)cc1)NC(=O)CN)C(=O)N1CCC[C@H]1C(=O)N[C@@H](CC(C)C)C(=O)N[C@@H](Cc1ccc(O)cc1)C(=O)O [pol 639]
- IC50 [2]: 280 nM
- XRN (number of supertype alleles bound ≦500 nM) [1, 7]: 2

Molecule: CC[C@H](C)[C@H](NC(=O)CNC(=O)[C@H](CC(C)C)NC(=O)[C@H](CO)NC(=O)[C@H](CC(C)C)NC(=O)[C@H](CC(C)C)NC(=O)[C@@H](N)Cc1ccccc1)C(=O)N[C@@H](Cc1c[nH]cn1)C(=O)N[C@@H](CC(C)C)C(=O)O [pol 562]
- XRN (number of supertype alleles bound ≦500 nM) [1, 6]: 3

Molecule: CC(C)C[C@H](NC(=O)[C@H](C)NC(=O)[C@H](CO)NC(=O)[C@H](C)NC(=O)[C@@H](NC(=O)[C@H](CC(=O)O)NC(=O)[C@H](CC(C)C)NC(=O)[C@H](CC(C)C)NC(=O)[C@@H](N)CC(=O)O)[C@@H](C)O)C(=O)N[C@@H](Cc1ccc(O)cc1)C(=O)O [core 419]
- XRN (number of supertype alleles bound ≦500 nM) [1, 7]: 3

Molecule: CC[C@H](C)[C@H](NC(=O)[C@H](CS)NC(=O)[C@H](C)NC(=O)[C@H](Cc1ccc(O)cc1)NC(=O)[C@H](CC(C)C)NC(=O)[C@@H]1CCCN1C(=O)[C@H](CCSC)NC(=O)[C@H](CC(C)C)NC(=O)[C@H](C)N)C(=O)O [pol 642]
- XRN (number of supertype alleles bound ≦500 nM) [1]: 4

Molecule: CSCC[C@H](NC(=O)[C@H](CCSC)NC(=O)[C@@H](N)Cc1c[nH]c2ccccc12)C(=O)N[C@@H](Cc1c[nH]c2ccccc12)C(=O)N[C@@H](Cc1ccc(O)cc1)C(=O)N[C@@H](Cc1c[nH]c2ccccc12)C(=O)NCC(=O)N1CCC[C@H]1C(=O)N[C@@H](CO)C(=O)N[C@@H](CC(C)C)C(=O)N[C@@H](Cc1ccc(O)cc1)C(=O)O [env 359]
- XRN (number of supertype alleles bound ≦500 nM) [1, 7]: 3

Molecule: N[C@@H](CO)C(=O)N[C@@H](Cc1ccccc1)C(=O)N[C@@H](CS)C(=O)NCC(=O)N[C@@H](CO)C(=O)N1CCC[C@H]1C(=O)N[C@@H](Cc1ccc(O)cc1)C(=O)N[C@@H](CO)C(=O)N[C@@H](Cc1c[nH]c2ccccc12)C(=O)O [pol 167]
- IC50 [2]: 146 nM
- XRN (number of supertype alleles bound ≦500 nM) [1, 7]: 3

Molecule: RFSWLSLLVPF [env 332]
- IC50 [2]: 12 nM
- XRN (number of supertype alleles bound ≦500 nM) [1, 7]: 2
- Murine Immunogenicity (SU) [3]: 0.0 SU

Molecule: CC(C)C[C@H](NC(=O)[C@H](CO)NC(=O)[C@@H](N)CC(C)C)C(=O)N[C@@H](CC(=O)O)C(=O)N[C@H](C(=O)N[C@@H](CO)C(=O)N[C@@H](C)C(=O)N[C@@H](C)C(=O)N[C@@H](Cc1ccccc1)C(=O)N[C@@H](Cc1ccc(O)cc1)C(=O)O)C(C)C [pol 415]
- XRN (number of supertype alleles bound ≦500 nM) [1, 7]: 3

Molecule: CC(C)C[C@H](NC(=O)[C@H](CS)NC(=O)[C@H](Cc1c[nH]cn1)NC(=O)[C@@H]1CCCN1C(=O)[C@H](Cc1ccccc1)NC(=O)[C@H](C)N)C(=O)N[C@@H](C)C(=O)N[C@@H](Cc1ccccc1)C(=O)O [pol 529]
- XRN (number of supertype alleles bound ≦500 nM) [1, 7]: 3

Molecule: CC(C)C[C@H](NC(=O)[C@H](CCCNC(=N)N)NC(=O)[C@H](C)NC(=O)[C@@H](NC(=O)[C@H](Cc1ccc(O)cc1)NC(=O)[C@H](CCCNC(=N)N)NC(=O)[C@H](CO)NC(=O)[C@H](CC(C)C)NC(=O)CN)C(C)C)C(=O)O [pol 455]
- XRN (number of supertype alleles bound ≦500 nM) [1, 6]: 3

Molecule: C[C@H](N)C(=O)N[C@@H](CO)C(=O)N[C@@H](Cc1ccccc1)C(=O)N[C@@H](CS)C(=O)NCC(=O)N[C@@H](CO)C(=O)N1CCC[C@H]1C(=O)N[C@@H](Cc1ccc(O)cc1)C(=O)O [pol 166]
- XRN (number of supertype alleles bound ≦500 nM) [1, 7]: 3

Molecule: CC[C@H](C)[C@H](NC(=O)[C@@H](NC(=O)[C@H](Cc1ccccc1)NC(=O)[C@H](CCCNC(=N)N)NC(=O)[C@H](CCCNC(=N)N)NC(=O)[C@H](CC(C)C)NC(=O)[C@H](CS)NC(=O)[C@H](CCSC)NC(=O)[C@H](Cc1c[nH]c2ccccc12)NC(=O)[C@@H](N)CCCNC(=N)N)[C@@H](C)CC)C(=O)O [env 236]
- XRN (number of supertype alleles bound ≦500 nM) [1, 7]: 3
- Murine Immunogenicity (SU) [3]: 339.6 SU

Molecule: CC(C)C[C@H](NC(=O)[C@H](CC(N)=O)NC(=O)[C@@H]1CCCN1C(=O)[C@@H](NC(=O)[C@H](C)NC(=O)[C@H](Cc1ccccc1)NC(=O)[C@H](CCCCN)NC(=O)[C@@H]1CCCN1C(=O)[C@H](Cc1c[nH]c2ccccc12)NC(=O)[C@@H](N)CO)C(C)C)C(=O)O [pol 392]
- XRN (number of supertype alleles bound ≦500 nM) [1, 7]: 2
- Murine Immunogenicity (SU) [3]: 261.0 SU

Molecule: CC[C@H](C)[C@H](NC(=O)[C@@H]1CCCN1C(=O)[C@H](CC(C)C)NC(=O)[C@@H](N)CC(C)C)C(=O)N[C@@H](Cc1ccccc1)C(=O)N[C@@H](Cc1ccccc1)C(=O)N[C@@H](CS)C(=O)N[C@@H](CC(C)C)C(=O)N[C@@H](Cc1c[nH]c2ccccc12)C(=O)N[C@H](C(=O)O)C(C)C [env 378]
- XRN (number of supertype alleles bound ≦500 nM) [1, 6]: 1

Molecule: CC(C)C[C@H](NC(=O)[C@H](C)NC(=O)[C@H](CO)NC(=O)[C@@H]1CCCN1C(=O)[C@@H](NC(=O)[C@H](Cc1ccc(O)cc1)NC(=O)[C@@H](NC(=O)[C@H](Cc1ccccc1)NC(=O)[C@H](CO)NC(=O)[C@@H](NC(=O)CN)[C@@H](C)O)C(C)C)C(C)C)C(=O)N[C@@H](CC(N)=O)C(=O)N1CCC[C@H]1C(=O)N[C@@H](C)C(=O)N[C@@H](CC(=O)O)C(=O)O [pol 774]
- HIV-FT Immunogenicity magnitude ([4]; 100 μg HIV-FT plasmid DNA i.m., CTL response to the epitope): 0 LU
- Frequency (fraction of independent cultures yielding positive responses) ([4]; CTL response to the epitope after immunization with epigene construct HIV 1 (20 mer)): 0/8
- HIV-FT Immunogenicity frequency (number cultures >2LU/total tested) ([4]; HIV-FT DNA): 0/8
- HIV-FT Immunogenicity frequency of positive cultures ([4]; HIV-FT DNA, positive = >2LU): 0%
- Frequency (fraction of independent cultures yielding positive responses) ([4]; epigene construct HIV 1.1 (10 mer)): 0/4

B1: HBV HTL: epigene construct encoding 16 HBV HTL epitopes with GPGPG spacers, SEQ ID NO: 73/74 (nucleic acid)
DNA: ATGGGAACTTCTTTTGTGTATGTCCCTTCCGCTCTGAACCCAGCAGACGGACCCGGGCCTGGCCTGTGCCAGGTCTTCGCCGACGCAACTCCCACAGGGTGGGGGCTGGGGCCAGGACCAGGCAGGCACTACCTGCATACTCTGTGGAAGGCAGGAATCCTCTATAAAGGGCCCGGCCCAGGCCCTCACCACACCGCCCTGAGGCAGGCCATCCTGTGCTGGGGGGAGCTCATGACCCTGGCCGGACCTGGACCCGGGGAGAGCAGACTGGTGGTGGATTTCAGCCAATTCAGCAGAGGAAACGGACCCGGCCCTGGGCCTTTTCTGCTGGCTCAGTTTACATCTGCTATTTGTTCTGTGGTCGGCCCCGGGCCCGGACTCGTGCCTTTCGTGCAGTGGTTCGTGGGACTGTCCCCTACAGTCGGGCCCGGCCCAGGGCTGCATCTGTACTCCCACCCAATCATCCTCGGCTTCCGCAAGATTGGACCCGGCCCAGGCTCCAGCAATCTCTCCTGGCTCTCTCTGGACGTGTCTGCCGCCTTTGGCCCTGGACCAGGCCTGCAAAGCCTGACTAATCTGCTCAGCAGCAACCTGTCCTGGCTGGGACCTGGCCCAGGGGCTGGCTTCTTTCTGCTCACCCGGATTCTCACAATTCCCCAGTCCGGACCAGGACCAGGAGTCAGTTTCGGGGTGTGGATCAGGACCCCTCCTGCTTATAGACCACCCAATGCTCCAATCGGCCCCGGCCCTGGCGTCGGGCCACTGACCGTGAATGAGAAGCGCCGGCTGAAGCTGATCGGCCCTGGCCCTGGCAAGCAGTGCTTTCGCAAACTGCCCGTGAACAGACCTATTGATTGGGGCCCCGGCCCTGGAGCAGCCAACTGGATTCTCAGGGGAACAAGCTTCGTCTACGTGCCCGGGCCCGGACCAGGGAAGCAGGCTTTTACCTTCTCTCCCACTTACAAGGCCTTCCTCTGTGGGCCAGGCCCCGGCGCCAAGTTTGTGGCAGCATGGACCCTCAAAGCCGCTGCCTGA
modifications: Hepatitis B virus
- Epitopes with responses as vigorous as those induced by peptides emulsified in CFA (%) ([5]; 100 μg i.m., IFN-γ production by CD4+ T-lymphocytes): 50%
- Epitopes that failed to induce a response ([5]; mouse, in vivo): two
- Epitopes with responses as vigorous as those induced by peptides emulsified in CFA (fraction of epitopes tested) ([5]; mouse, in vivo): 6/12
